Some test systems named below: CCRF-CEM leukemia; LOX IMVI melanoma; ACHN renal; HOP-92 NSCLC; SW-620 colon; EKVX NSCLC; SK-MEL-2 melanoma; UACC-62 melanoma; SR leukemia.
Holding throughout (test): growth of human tumour cells (NCI), 48 h

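Cells were grown in 96-well plates and exposed to each compound for 48 hours at five concentrations; endpoints were interpolated linearly between bracketing concentrations, or set to the highest concentration if not reached. GI50 is the concentration that inhibits growth by half. Definition used: TGI = concentration required for complete inhibition of growth.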

As for `Cn1cc(-c2ccc3nnc(C(F)(F)c4ccc5ncccc5c4)n3n2)cn1`, the GI50 with CCRF-CEM leukemia is 98700 nM; with LOX IMVI melanoma it was 55.5 µM; in the test with ACHN renal it was 32.8 µM; in the test with HOP-92 NSCLC it was 10600 nM; in the test on SW-620 colon, above 95800 nM; with EKVX NSCLC it was above 83300 nM. In addition, the GI50 is 50600 nM in the test with SK-MEL-2 melanoma and 66100 nM in the test with UACC-62 melanoma. Moreover, the TGI was above 100 µM with CCRF-CEM leukemia; above 100 µM in the test with LOX IMVI melanoma; above 100 µM in the test with ACHN renal; above 88.9 µM with HOP-92 NSCLC; above 100 µM in the test on SW-620 colon; above 100 µM in the test with EKVX NSCLC. Moreover, the TGI in the test with SK-MEL-2 melanoma and in the test on UACC-62 melanoma was above 100 µM in each case.
Consider `COc1ccc2c(c1)CC1N(C)CCC13CCCCC23` (configuration not stated), for which the TGI in the test with CCRF-CEM leukemia, with LOX IMVI melanoma, in the test with ACHN renal, in the test with SR leukemia, in the test on HOP-92 NSCLC and in the test with EKVX NSCLC was above 100 µM each time. The TGI with SK-MEL-2 melanoma and with UACC-62 melanoma was above 100 µM in each case.
On to `C=C(C)[C@@H]1CC[C@]2(C(=O)N3CCN(C)CC3)CC[C@]3(C)[C@H](CC[C@@H]4[C@@]5(C)CC[C@H](O)C(C)(C)[C@@H]5CC[C@]43C)[C@@H]12`, for which the GI50 in the test with LOX IMVI melanoma was 1.87 µM; in the test on ACHN renal, 1.69 µM; in the test on HOP-92 NSCLC, 1690 nM; with SW-620 colon it was 1740 nM; in the test on EKVX NSCLC, 1920 nM; in the test on SK-MEL-2 melanoma it was 1640 nM. In addition, the GI50 in the test on UACC-62 melanoma is 1720 nM. Moreover, the TGI with LOX IMVI melanoma came out at 3.74 µM; in the test on ACHN renal, 3.12 µM; in the test with HOP-92 NSCLC, 3.42 µM; with SW-620 colon, 3.7 µM; in the test on EKVX NSCLC, 4.12 µM; in the test on SK-MEL-2 melanoma, 3.14 µM. The molecule also had a TGI in the test with UACC-62 melanoma of 3.3 µM.
As to `CCOC(=O)Nc1cc(-c2ccc(C)c(NS(C)(=O)=O)c2)nn2c(C)nnc12`, the GI50 in the test on CCRF-CEM leukemia is 1010 nM; with ACHN renal, 2.64 µM; in the test on SR leukemia, 643 nM; with SW-620 colon it was 2420 nM; in the test on UACC-62 melanoma, 445 nM. In addition, the TGI with CCRF-CEM leukemia was 14.9 µM; in the test with ACHN renal it was 60.7 µM; in the test on SR leukemia it was above 100 µM; with SW-620 colon, 30.9 µM; in the test on UACC-62 melanoma it was 18.5 µM.
Regarding `COc1cc(OC)c(/C=C/C(=O)c2c(O)cc(OC)c(C3CCN(C)CC3)c2OC)c(OC)c1`, the GI50 in the test on CCRF-CEM leukemia is 1180 nM; with ACHN renal it was 1.58 µM; in the test on SW-620 colon, 1450 nM; with EKVX NSCLC, 1120 nM; in the test with SK-MEL-2 melanoma it was 1780 nM. Moreover, the TGI with CCRF-CEM leukemia was 2.78 µM; with ACHN renal it was 2.98 µM; in the test on SW-620 colon, 3.02 µM; in the test with EKVX NSCLC, 2.48 µM; in the test on SK-MEL-2 melanoma, 3.24 µM.
With `O=C(O)c1c[nH]c2c(ccc3[nH]cc(C(=O)O)c(=O)c32)c1=O`, the TGI with LOX IMVI melanoma, in the test with ACHN renal, with SR leukemia, in the test with HOP-92 NSCLC, in the test on SW-620 colon and in the test on EKVX NSCLC was above 100 µM throughout. Also, the TGI in the test with SK-MEL-2 melanoma and in the test on UACC-62 melanoma was above 100 µM in each case.
As for `COc1cc(CC(=O)c2cc3c(cc2-c2ccccc2)OCO3)cc(OC)c1OC`, the TGI is above 100 µM with CCRF-CEM leukemia; above 100 µM in the test with LOX IMVI melanoma; above 100 µM with ACHN renal; 72.3 µM in the test on SR leukemia; 42 µM with HOP-92 NSCLC; above 100 µM in the test with SW-620 colon. Also, the TGI with EKVX NSCLC and in the test with SK-MEL-2 melanoma was above 100 µM each time.
For the molecule `Cn1c(=O)c(-c2c(Cl)cccc2Cl)cc2cnc(Nc3ccc(I)cc3)nc21`, the GI50 in the test on CCRF-CEM leukemia was 22.4 nM; in the test with LOX IMVI melanoma, 0.271 µM; in the test with SR leukemia it was below 10 nM; in the test on HOP-92 NSCLC, 17.9 nM; in the test on SW-620 colon, 18.8 nM; with SK-MEL-2 melanoma, 1520 nM. The GI50 with UACC-62 melanoma was 301 nM. Also, the TGI was above 100 µM with CCRF-CEM leukemia; 1.12 µM in the test with LOX IMVI melanoma; 0.712 µM with ACHN renal; below 0.01 µM with SR leukemia; 4.94 µM in the test with HOP-92 NSCLC; 2.49 µM in the test on SW-620 colon. The TGI is above 100 µM in the test with SK-MEL-2 melanoma and 1.28 µM with UACC-62 melanoma.
For the molecule `COc1cc2oc(-c3ccc(O)cc3)cc(=O)c2c(OC)c1O`, the TGI with CCRF-CEM leukemia, in the test with LOX IMVI melanoma, in the test on ACHN renal, with HOP-92 NSCLC, in the test with SW-620 colon and with EKVX NSCLC was above 100 µM each time. For the same molecule, the TGI with SK-MEL-2 melanoma and in the test on UACC-62 melanoma was above 100 µM each time.
`O=C(O)CCCc1cc2c(s1)-c1cccc3cccc-2c13`: the TGI in the test on LOX IMVI melanoma is 52 µM; in the test with ACHN renal it was 76 µM; in the test on SR leukemia, 56.9 µM; in the test with HOP-92 NSCLC, 39 µM; in the test on SW-620 colon, above 100 µM; in the test on SK-MEL-2 melanoma it was 46.3 µM. Further, the TGI in the test on UACC-62 melanoma came to 47.2 µM.
In the case of `O=[N+]([O-])c1cccc([I+]c2ccccc2)c1`, the GI50 with CCRF-CEM leukemia is 5270 nM; in the test on LOX IMVI melanoma, 6.21 µM; in the test with ACHN renal, 19.6 µM; with SR leukemia, 3160 nM; in the test on SW-620 colon it was 6420 nM; in the test on SK-MEL-2 melanoma, 17800 nM. The TGI in the test with CCRF-CEM leukemia was 90.7 µM; in the test on LOX IMVI melanoma it was 20.1 µM; in the test with ACHN renal it was above 100 µM; in the test with SR leukemia, 25.9 µM; with SW-620 colon it was 26.7 µM; with SK-MEL-2 melanoma, 35.2 µM.
As for `Cc1ccnc(NC(c2ccccc2)c2ccc3cccnc3c2O)c1` (configuration not stated), the GI50 with CCRF-CEM leukemia is 2430 nM; with LOX IMVI melanoma it was 3.29 µM; in the test on ACHN renal it was 3.46 µM; in the test with SR leukemia, 2700 nM; in the test on HOP-92 NSCLC it was 2110 nM; with SW-620 colon, 3860 nM. Moreover, the GI50 with EKVX NSCLC is 2640 nM; in the test with UACC-62 melanoma, 4420 nM. The TGI with CCRF-CEM leukemia was above 100 µM; in the test on LOX IMVI melanoma, 34.2 µM; in the test on ACHN renal, above 100 µM; with SR leukemia it was above 100 µM; in the test with HOP-92 NSCLC, 8.95 µM; with SW-620 colon, 15.6 µM. The values for the TGI in the test with EKVX NSCLC and with UACC-62 melanoma were 15.8 µM and 87.9 µM, respectively.

These data come from PubChem BioAssay (NCI).
